US20110014243A1, “PHARMACEUTICAL COMPOSITIONS” (priority 2007, published 2011)

Assay: Stability of milled and unmilled Compound 1A in combination with calcium carbonate, HPLC
Type: physicochemical
Conditions: mixed with calcium carbonate, open vials at 50° C. and 75% relative humidity
Description: Samples containing 1092 mg of calcium carbonate and […] Compound 1A (either milled or unmilled) were prepared and weighed into small amber glass bottles. Samples were stored in open vials at 50° C. and 75% relative humidity. The samples were then removed after two or four weeks and stored at room temperature for up to four days prior to being analysed and were stored in open vials at 50° C. and 75% RH. The blends of Compound 1A and calcium carbonate were transferred to a glass volumetric flask and diluted to a volume of 10 ml or 100 ml with a 0.05% trifluoroacetic acid (TFA) solution in 50/50 acetonitrile/water to provide a 1 mg/ml solution of Compound 1A. The solution was stirred using a magnetic stirrer for 20 minutes then left for 5 minutes before 1 ml aliquots were taken using a plastic syringe. The aliquots were filtered through a 0.45 μm syringe filter into amber glass vials for HPLC analysis.

area % of Compound 2A compared to Compound 1A (milled, 2 weeks): 0.2 area %
area % of Compound 2A compared to Compound 1A (milled, 4 weeks): 0.2 area %
area % of Compound 2A compared to Compound 1A (unmilled, 2 weeks): 0.2 area %
area % of Compound 2A compared to Compound 1A (unmilled, 4 weeks): 0.2 area %
SMILES: CC(C)c1cc(Oc2c(Br)cc(NC(=O)CC(=O)O)cc2Br)ccc1O [Compound 1A, 3-[[3,5-Dibromo-4-[4-hydroxy-3-(1-methylethyl)-phenoxy]-phenyl]-amino]-3-oxopropanoic acid]
